Measurements published in PMC9785606, “Design and Synthesis of Novel Phenylahistin Derivatives Based on Co-Crystal Structures as Potent Microtubule Inhibitors for Anti-Cancer Therapy” (Marine Drugs, 2022).
Marks after values point to notes of the source that are not given here.

Key:
[1] = tested on: human lung cancer NCI-H460 cell line; assay: MTT cytotoxicity assay, lung cancer NCI-H460 cell line; assay type: cell-based; details: mean ± SD
Procedure: (§1) Human cancer cell lines (lung cancer NCI-H460 cell line, pancreatic cancer BxPC-3 cell line, colon cancer HT-29 cell line) were purchased from American Type Cell Culture Collection (ATCC, Manassas, VA, USA). Cells were maintained in RPMI-1640 medium supplemented with 10% (v/v) heat-inactivated fetal bovine serum, penicillin-streptomycin (100 U/mL-100 […]) at 37 °C in a humidified atmosphere (5% CO2–95% air). All tested derivatives were dissolved in 100% cell culture grade DMSO. Cells (3 × 10^3 per well) were seeded in 96-well plates for 24 h. Then, cells were treated with the tested compounds in six concentrations for 72 h. Cell viability was assessed by MTT assay. The absorbance at 490 nm was measured with a Microplate Reader (Molecular Devices, Silicon Valley, CA, USA). The data were analyzed by Origin 8.5 (OriginLab, Northampton, MA, USA).

[2] = tested on: colon cancer HT-29 cell line; assay: MTT cytotoxicity assay, colon cancer HT-29 cell line; assay type: cell-based; details: Homo sapiens, 72 h, mean ± SD
Procedure: as §1

caspase-3 = assay: Western blotting of caspase-3 expression; assay type: cell-based
Procedure: Western blot was performed as previously described with antibody caspase-3 (1:1000) (WB0177/WB0176) or GAPDH (1:3000) (WB0197/WB0196, Shanghai Wei-Ao Biotechnology Co., Shanghai, China). Densities of the Western blotting bands were quantified using ImageJ 19.0. (NIH, Bethesda, MD, USA).

[3] = tested on: pancreatic cancer BxPC-3 cell line; assay: MTT cytotoxicity assay, pancreatic cancer BxPC-3 cell line; assay type: cell-based; details: Homo sapiens, 72 h, mean ± SD
Procedure: as §1

[4] = tested on: H22 hepatoma carcinoma cells transplanted tumor; assay: H22 subcutaneous transplanted tumor model, intravenous administration; details: for Tumor Volume (D15): 14 consecutive days; for Tumor Volume (D1): D1 (baseline), mean ± SD; for Tumor Weight: excised at end of administration; for IR (tumor weight inhibition rate): IR = (1 − TWt/TWc) × 100%
Procedure: The anticancer effect of the compound 15p was further evaluated against H22 tumor-bearing mice models by intravenous injection at doses of 2 mg/kg, or 4 mg/kg, two or three times a week, and for 14 consecutive days. Docetaxel (10 mg/kg), plinabulin (4 mg/kg), and cyclophosphamide (20 mg/kg) were used as the positive controls.
Balb/c mice (4–6 weeks old, 16–18 g) were purchased from Shanghai Sippr-BK laboratory animal Co. Ltd. The animal study protocol was approved by Institutional Review Board of Science and Technology Division of Linyi University (review opinion on behalf of the Ethics Committee) (The protocol code is LYU20220107, provided on 10 March 2022). H22 cells were grown in RPMI-1640 midium supplemented with 10% fetal bovine serum, and maintained at 37 °C in humidified 5% CO2. Cells were passaged when they reached 70–80% confluence. Viable H22 cells (1 × 10^7 cells/0.2 ml 0.9% sodium chloride) were injected into the peritoneal cavity of BALB/C mice to trigger ascitic cell growth. Later, cells were harvested and suspended. H22 cancer cells (2 × 10^7 cells/0.1 ml 0.9% sodium chloride cells) were subcutaneously injected into the right flank of each mouse. After implantation, the tumor size was measured with an electronic caliper twice a week, and the tumor volume was calculated according to the following formula: tumor volume (mm^3) = 0.5 × length × width^2. When the tumor volume reached about 130 mm^3, the xenograft tumor-bearing BALB/C mice were randomly placed into six groups at 10 mice per group: vehicle, plinabulin (4 mg/kg), 15p ([…]), 15p ([…]), cyclophosphamide (20 mg/kg) and docetaxel (10 mg/kg) groups. Docetaxel, plinabulin, and cyclophosphamide were chosen as positive control drug. The reference compound docetaxel and cyclophosphamide were completely dissolved in isotonic saline. […] The solution of compound 15p was diluted with the concentrated solution and in isotonic saline at a calculated ratio. The solutions of plinabulin were made up according to similar methods. The mice received intravenous administration (iv) every two or three days for consecutive 14 days. The tumor volumes and the body weights were recorded every two or three days after treatment. At the end of the administration period, the animals were euthanized by dislocation, and the tumor bulks were peeled off conforming to the Guide for the Animal use and Management of Shanghai Medicilon Biological Medicine Co. Ltd. The tumor volume was calculated according to the Principles of Non-clinical Research Techniques for Anti-tumor Drugs of Cytotoxic Drugs by China Food and Drug Administration.

[5] = tested on: microtubules in NCI-H460 cells; assay: Immunofluorescence assay of microtubules (β-tubulin/DAPI staining); assay type: cell-based, human; details: 24 h
Procedure: To further explore the effect of phenylahistin derivatives 1 and 15p on microtubules in cancer cells, an immunofluorescence assay was performed. […] The inhibitory activities were consistent with the previously shown anti-proliferative activities.
NCI-H460 cells were seeded in 24-well plate (with coverslips plated) at the density of 5 × 10^4 cells. […] Then, cells were fixed with 4% cold paraformaldehyde at 4 °C for 15 min and then permeabilized in 0.05% Triton X-100 for 10 min. The cells were blocked in 1% BSA for 30 min. Microtubules were detected by incubation with a monoclonal anti-β-tubulin (β-tubulin antibody was obtained from Servicebio, Wuhan, China.) at 4 °C for 12 h. Subsequently, the cells were washed with PBS and incubated with a FITC-conjugated anti-mouse IgG antibody. Nuclei were stained with DAPI (G1012, Servicebio, Wuhan, China). The coverslips were visualized under fluorescence microscope (Nikon Eclipse C1, Nikon, Japan) and an image-forming system (Nikon DS-U3, Nikon, Tokyo, Japan).

[6] = 20 mg/kg iv, listed as cyclophosphamide
[7] = 10 mg/kg iv, listed as docetaxel
[8] = 4 mg/kg iv, listed as plinabulin

Row | Structure (SMILES) | IC50 ([1]; Homo sapiens, NCI-H460, 72 h) [nM] | melting point [°C] | also measured
1 | Cc1c(/C=c2\[nH]c(=O)/c(=C/c3cccc(C(=O)c4ccc(F)cc4)c3)[nH]c2=O)ncn1C [15a] | 21.1 | 224 to 226 | IC50 ([1]; 72 h): 21.1 ± 1.3 nM
2 | CC(C)c1c(/C=c2\[nH]c(=O)/c(=C/c3cccc(Oc4ccc(F)cc4)c3)[nH]c2=O)ncn1C [15b] | 40.4 ± 0.82 | 218 to 219 | 
3 | CC(C)c1c(/C=c2\[nH]c(=O)/c(=C/c3cccc(C(=O)c4ccc(F)cc4)c3)[nH]c2=O)ncn1C [15c] | 3.65 ± 0.18 | 225 to 227 | 
4 | CCn1cnc(/C=c2\[nH]c(=O)/c(=C/c3cccc(C(=O)c4ccc(F)cc4)c3)[nH]c2=O)c1C [15d] | 16.9 ± 1.5 | 227 to 229 | 
5 | CCn1cnc(/C=c2\[nH]c(=O)/c(=C/c3cccc(Oc4ccc(F)cc4)c3)[nH]c2=O)c1C(C)C [15e] | 12.2 ± 0.27 | 195 to 198 | 
6 | CCn1cnc(/C=c2\[nH]c(=O)/c(=C/c3cccc(C(=O)c4ccc(F)cc4)c3)[nH]c2=O)c1C(C)C [15f] | 2.01 ± 0.19 | 234 to 236 | 
7 | CCCn1cnc(/C=c2\[nH]c(=O)/c(=C/c3cccc(C(=O)c4ccc(F)cc4)c3)[nH]c2=O)c1C [15g] | 4.93 ± 0.25 | 214 to 216 | 
8 | CCCn1cnc(/C=c2\[nH]c(=O)/c(=C/c3cccc(Oc4ccc(F)cc4)c3)[nH]c2=O)c1C(C)C [15h] | 5.4 ± 0.15 | 201 to 203 | 
9 | CCCn1cnc(/C=c2\[nH]c(=O)/c(=C/c3cccc(C(=O)c4ccc(F)cc4)c3)[nH]c2=O)c1C(C)C [15i] | 1.67 ± 0.15 | 200 to 202 | 
10 | CCCCn1cnc(/C=c2\[nH]c(=O)/c(=C/c3cccc(Oc4ccc(F)cc4)c3)[nH]c2=O)c1C(C)C [15j] | 2.49 ± 0.28 | 203 to 204 | IC50 [2]: 2.11 ± 0.09 nM; Expression of caspase-3 vs control group and plinabulin group (caspase-3): significantly higher; IC50 [3]: 1.13 ± 0.35 nM
11 | CCCCn1cnc(/C=c2\[nH]c(=O)/c(=C/c3cccc(C(=O)c4ccc(F)cc4)c3)[nH]c2=O)c1C(C)C [15k] | 0.94 ± 0.11 | 198 to 201 | 
12 | Cc1c(/C=c2\[nH]c(=O)/c(=C/c3cccc(C(=O)c4ccc(F)cc4)c3)[nH]c2=O)ncn1CCNC(=O)OC(C)(C)C [15l] | 105 ± 11.7 | 189 to 191 | 
13 | CC(C)c1c(/C=c2\[nH]c(=O)/c(=C/c3cccc(C(=O)c4ccc(F)cc4)c3)[nH]c2=O)ncn1CCNC(=O)OC(C)(C)C [15m] | 27.3 ± 1.32 | 204 to 206 | 
14 | Cc1c(/C=c2\[nH]c(=O)/c(=C/c3cccc(C(=O)c4ccc(F)cc4)c3)[nH]c2=O)ncn1CCCNC(=O)OC(C)(C)C [15n] | 145.7 ± 0.27 | 206 to 208 | 
15 | CC(C)c1c(/C=c2\[nH]c(=O)/c(=C/c3cccc(C(=O)c4ccc(F)cc4)c3)[nH]c2=O)ncn1CCCNC(=O)OC(C)(C)C [15o] | 12.7 ± 0.71 | 179 to 180 | 
16 | C#CCn1cnc(/C=c2\[nH]c(=O)/c(=C/c3cccc(C(=O)c4ccc(F)cc4)c3)[nH]c2=O)c1C(C)C [15q] | 1.49 ± 0.31 | 150 to 152 | IC50 [2]: 0.67 ± 0.035 nM; IC50 [3]: 1.15 ± 0.042 nM
17 | Cc1c(/C=c2\[nH]c(=O)/c(=C/c3cccc(C(=O)c4ccc(F)cc4)c3)[nH]c2=O)ncn1CCN [16a] | 33.4 ± 9.59 | 180 to 182 | 
18 | CC(C)c1c(/C=c2\[nH]c(=O)/c(=C/c3cccc(C(=O)c4ccc(F)cc4)c3)[nH]c2=O)ncn1CCN [16b] | 11.3 | 190 to 192 | IC50 [2]: 5.92 ± 0.39 nM; IC50 ([1]; 72 h): 11.3 ± 3.45 nM; IC50 [3]: 3.27 ± 0.09 nM
19 | Cc1c(/C=c2\[nH]c(=O)/c(=C/c3cccc(C(=O)c4ccc(F)cc4)c3)[nH]c2=O)ncn1CCCN [16c] | 103 ± 11.7 | 247 to 248 | 
20 | CC(C)c1c(/C=c2\[nH]c(=O)/c(=C/c3cccc(C(=O)c4ccc(F)cc4)c3)[nH]c2=O)ncn1CCCN [16d] | 5.38 ± 1.46 | 199 to 201 | IC50 [2]: 2.45 ± 0.42 nM; IC50 [3]: 2.35 ± 1.75 nM
21 | O=P1(N(CCCl)CCCl)NCCCO1 (stereo not drawn) [Cyclophosphamide] |  |  | Body weight compared to the control group ([4]; 20 mg/kg iv): decreased the body weights; Tumor Volume (D15) ([4]; 20 mg/kg iv): 687.2 ± 288.6* mm^3; Tumor Volume (D15) [4, 6]: 687.2 mm^3; Tumor Volume (D1) ([4]; 20 mg/kg iv): 105.1 ± 30.26 mm^3; Tumor Weight ([4]; 20 mg/kg iv): 0.42 ± 0.24 g; Tumor Weight [4, 6]: 0.42 g; IR (tumor weight inhibition rate) ([4]; 20 mg/kg iv): 62.6%
22 | CC(=O)O[C@@]12CO[C@@H]1C[C@H](O)[C@@]1(C)C(=O)[C@H](O)C3=C(C)[C@@H](OC(=O)[C@H](O)[C@@H](NC(=O)OC(C)(C)C)c4ccccc4)C[C@@](O)([C@@H](OC(=O)c4ccccc4)[C@H]21)C3(C)C [Docetaxel] |  |  | Tumor Volume (D15) ([4]; 10 mg/kg iv): 903.6 ± 421.7* mm^3; Tumor Volume (D15) [4, 7]: 903.6 mm^3; Tumor Volume (D1) ([4]; 10 mg/kg iv): 103.6 ± 30.75 mm^3; Tumor Weight ([4]; 10 mg/kg iv): 0.55 ± 0.22 g; Tumor Weight [4, 7]: 0.55 g; IR (tumor weight inhibition rate) ([4]; 10 mg/kg iv): 51.6%
23 | CC(C)(C)c1[nH]cnc1/C=c1\[nH]c(=O)/c(=C/c2ccccc2)[nH]c1=O [Plinabulin] | 26.2 ± 3.2 |  | Effect on microtubule networks ([5]; 10 nM): microtubule networks were damaged; Tumor Volume (D15) ([4]; 4 mg/kg iv): 1425.3 ± 411.2 mm^3; Tumor Volume (D15) [4, 8]: 1425.3 mm^3; Tumor Volume (D1) ([4]; 4 mg/kg iv): 104.7 ± 26.66 mm^3; Tumor Weight ([4]; 4 mg/kg iv): 0.77 ± 0.31 g; Tumor Weight [4, 8]: 0.77 g; IR (tumor weight inhibition rate) ([4]; 4 mg/kg iv): 31.9%; IC50 [2]: 6.6 ± 1.6 nM; IC50 [3]: 5.8 ± 0.2 nM
24 | CC(C)(C)c1[nH]cnc1/C=c1\[nH]c(=O)/c(=C/c2cccc(C(=O)c3ccc(F)cc3)c2)[nH]c1=O [compound 1] |  |  | Effect on microtubule networks ([5]; 2 nM): microtubule networks were damaged
